Assays:
[1] = Acute toxicity in 12 hr fasted male CD-1(ICR) mouse assessed as pathological damage in heart at 2 g/kg, IG administered as single dose measured after 14 days by H and E staining based analysis; format: tissue-based; settings: in vivo, po, 2000 mg/kg, 336 h, time 14 day
[2] = test system: Human immunodeficiency virus 1; experiment: Antiviral activity against HIV-1 IIIB harboring reverse transcriptase Y181C mutant infected in human MT4 cells by MTT assay; format: functional, organism-based; settings: Human immunodeficiency virus 1, IIIB
[3] = AUC (0 to t) in Sprague-Dawley rat at 5 mg/kg, po measured after 0.083 to 24 hrs by LC-MS analysis; format: ADME, organism-based; design: dose 5 mg/kg, time upper 24 hrs, time lower 0.083 hrs, route po; settings: in vivo
[4] = Acute toxicity in 12 hr fasted female CD-1(ICR) mouse assessed as pathological damage in spleen at 2 g/kg, IG administered as single dose measured after 14 days by H and E staining based analysis; format: tissue-based; settings: in vivo, po, 2000 mg/kg, 336 h, time 14 day
[5] = AUC (0 to infinity) in Sprague-Dawley rat at 5 mg/kg, po measured after 0.083 to 24 hrs by LC-MS analysis; format: ADME, organism-based; design: time upper 24 hrs, dose 5 mg/kg, time lower 0.083 hrs, route po; settings: in vivo
[6] = target: Cytochrome P450 2C9 (Homo sapiens, UniProt P11712); experiment: Inhibition of CYP2C9 in human liver microsomes using diclofenac as substrate incubated for 15 to 45 mins in presence of NADPH
Cytochrome P450 2C9, sequence (P11712 whole entry): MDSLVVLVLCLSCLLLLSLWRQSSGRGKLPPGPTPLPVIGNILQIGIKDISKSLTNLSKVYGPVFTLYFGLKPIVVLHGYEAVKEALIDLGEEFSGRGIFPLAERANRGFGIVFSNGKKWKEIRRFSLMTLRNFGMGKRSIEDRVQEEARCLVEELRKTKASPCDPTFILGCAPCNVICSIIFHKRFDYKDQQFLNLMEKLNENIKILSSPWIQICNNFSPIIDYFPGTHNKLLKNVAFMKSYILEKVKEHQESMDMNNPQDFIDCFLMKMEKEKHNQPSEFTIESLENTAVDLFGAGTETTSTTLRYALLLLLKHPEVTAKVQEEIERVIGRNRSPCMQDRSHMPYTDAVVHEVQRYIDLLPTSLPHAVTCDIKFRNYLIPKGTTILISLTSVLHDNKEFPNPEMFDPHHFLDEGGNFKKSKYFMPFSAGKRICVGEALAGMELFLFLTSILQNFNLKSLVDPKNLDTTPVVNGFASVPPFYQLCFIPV

[7] = Acute toxicity in 12 hr fasted female CD-1(ICR) mouse assessed as changes in body weight at 2 g/kg, IG administered as single dose measured after 14 days; settings: in vivo, po, 2000 mg/kg, 336 h, time 14 day
[8] = Cytotoxicity against human MT4 cells assessed as reduction in cell viability by MTT assay; format: toxicity, cell-based
[9] = MRT (0 to infinity) in Sprague-Dawley rat at 1 mg/kg, iv measured after 0.083 to 24 hrs by LC-MS analysis; format: ADME, organism-based; settings: in vivo, time 0.083-24 hrs
[10] = target: Cytochrome P450 2D6 (Homo sapiens, UniProt P10635); experiment: Inhibition of CYP2D6 in human liver microsomes using dextromethorphan as substrate incubated for 15 to 45 mins in presence of NADPH
Cytochrome P450 2D6, sequence (P10635 whole entry): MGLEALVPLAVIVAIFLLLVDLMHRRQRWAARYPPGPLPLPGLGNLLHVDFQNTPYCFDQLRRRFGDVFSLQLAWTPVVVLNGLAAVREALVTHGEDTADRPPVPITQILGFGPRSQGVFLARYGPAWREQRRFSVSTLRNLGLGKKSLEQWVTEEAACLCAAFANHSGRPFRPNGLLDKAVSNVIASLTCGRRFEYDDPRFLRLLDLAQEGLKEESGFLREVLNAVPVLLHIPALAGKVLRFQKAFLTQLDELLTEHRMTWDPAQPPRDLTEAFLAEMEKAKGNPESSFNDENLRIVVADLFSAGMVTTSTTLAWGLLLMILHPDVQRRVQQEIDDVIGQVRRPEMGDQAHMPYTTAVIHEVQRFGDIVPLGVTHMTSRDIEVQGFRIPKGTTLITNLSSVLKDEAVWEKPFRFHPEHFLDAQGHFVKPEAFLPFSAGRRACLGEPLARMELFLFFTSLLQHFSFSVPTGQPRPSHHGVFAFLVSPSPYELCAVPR

[11] = test system: Human immunodeficiency virus 1; experiment: microbe, parasite or virus in culture; settings: Human immunodeficiency virus 1, IIIB, MT4
Description: Antiviral activity against HIV-1 IIIB harboring reverse transcriptase Y188L mutant infected in human MT4 cells by MTT assay

[12] = Acute toxicity in 12 hr fasted female CD-1(ICR) mouse assessed as pathological damage in heart at 2 g/kg, IG administered as single dose measured after 14 days by H and E staining based analysis; format: tissue-based; settings: in vivo, po, 2000 mg/kg, 336 h, time 14 day
[13] = test system: Human immunodeficiency virus 1; experiment: Antiviral activity against HIV-1 IIIB harboring reverse transcriptase K103N mutant infected in human MT4 cells by MTT assay; format: functional, organism-based; settings: Human immunodeficiency virus 1, IIIB
[14] = Acute toxicity in 12 hr fasted female CD-1(ICR) mouse assessed as animal death at 2 g/kg, IG administered as single dose measured after 14 days; settings: in vivo, po, 2000 mg/kg, 336 h, time 14 day
[15] = Clearance in Sprague-Dawley rat at 1 mg/kg, iv measured after 0.083 to 24 hrs by LC-MS analysis; format: ADME, organism-based; settings: in vivo, time 0.083-24 hrs
[16] = Acute toxicity in 12 hr fasted male CD-1(ICR) mouse assessed as pathological damage in brain at 2 g/kg, IG administered as single dose measured after 14 days by H and E staining based analysis; format: tissue-based; settings: in vivo, po, 2000 mg/kg, 336 h, time 14 day
[17] = Acute toxicity in 12 hr fasted male CD-1(ICR) mouse assessed as pathological damage in lung at 2 g/kg, IG administered as single dose measured after 14 days by H and E staining based analysis; format: tissue-based; settings: in vivo, po, 2000 mg/kg, 336 h, time 14 day

## COc1cc(-c2ccc(C#N)cc2)ccc1Oc1cc(N)nc(Nc2ccc(C#N)cc2)n1
[1]
  Activity: Non-Toxic
[2]
  EC50: 29 nM
[3]
  AUC(0-t): 116 ng·h/mL
[4]
  Activity: Non-Toxic
[5]
  AUC(0-inf): 124 ng·h/mL
[6]
  IC50: 5160 nM
[7]
  Activity: Non-Toxic
[8]
  CC50: 120000 nM
[9]
  MRT inf: 1.18 h
[10]
  IC50: > 50000 nM
[11]
  EC50: 570 nM
[12]
  Activity: Non-Toxic
[13]
  EC50: 4 nM
[14]
  Activity: Non-Toxic
[15]
  clearance: 51.6 mL/min/kg
[16]
  Activity: Non-Toxic
[17]
  Activity: Non-Toxic
